Results taken from patent US20240299353A1, “COMPOSITIONS AND METHODS FOR TREATING […] 5-MEO-DMT” (Alvarius Pharmaceuticals Ltd., priority 2021, published 2024).
Values joined by “and” are separate entries in the source; they are usually repeats but may differ in a detail not shown here. Identical values can stand only once.

Columns and labels:
hippocampal proteins [1] = assay: Hippocampal LC-MS/MS proteomics and PANTHER pathway overrepresentation; assay type: in vivo, Male Wistar rats; settings: hippocampus
Protocol: These treatment groups were used for the molecular assessment of addiction-linked markers.
Due to incompatibilities between components of the lysis buffer in the High-Performance Liquid Chromatography (HPLC) mass spectrometer the samples were first precipitated in 100% (w/v) Trichloroacetic acid (TCA). 1 volume of TCA stock was added to 4 volumes of protein sample. The mixture was incubated for 10 mins at 4° C. before centrifugation at 14,000 RPM for 5 mins. The supernatant was discarded and the pellet was washed in acetone. The acetone was then discarded and the pellet was air-dried before resuspension in 6M urea (Sigma) made in 50 mM ammonium bicarbonate (ABC, Sigma). 100 mM dithiothreitol (DTT) was added to the sample for a final concentration of 5 mM and the sample was incubated while vortexing at 60° C. for 30 mins. Next, 200 mM iodoacetemide (IAA, Sigma) solution was added and the sample was incubated in the dark at room temperature for 30 mins. The sample was then diluted with 50 mM ABC to give a final concentration of ≤2M Urea before the addition of trypsin. 50 μl of reduced, alkylated sample was added to a vial of trypsin singles, proteomic grade (Sigma) and incubated at 37° C. overnight while vortexing. 1% acetic acid (AA) was added to the sample to stop the trypsination the following day. Sample clean-up was performed using Stage Tips for a 10 μl pipette with a 0.6 μl C18 resin (Merck) and clean up was carried out as follows; Tip was equilibrated (10 μl of 50% acetonitrile (ACN) in 0.1% trifluoroacetic acid (TFA) was aspirated into the tip and dispensed to waste x2, 10 μl of 0.1% TFA was aspirated and dispensed to waste x2), peptides were bound to resin and washed (10 μl of sample was aspirated and dispensed x5 cycles, 10 μl of 0.1% TFA was aspirated and dispensed to waste x2) before being eluted into a collecting tube containing 30 μl of 50% ACN in 0.1% TFA (aspirate and dispense the sample through Stage Tip x3). This process was repeated three times for each sample using the same Stage Tip and collection tube. Samples were dried in a vacuum centrifuge for 30 mins at 60° C. and resuspended in 30 μl of Buffer A (97% water, 2.5% ACN and 0.5% AA) and stored at −20° C.
Digested samples were run on a Thermo Scientific Q Exactive mass spectrometer connected to a Dionex Ultimate 3000 (RSLCnano) chromatography system. Tryptic peptides were resuspended in 0.1% formic acid. Each sample was loaded onto a fused silica emitter (75 μm ID, pulled using a laser puller (Sutter Instruments P2000)), packed with Recrocil Pur C18 (1.9 μm) reverse phase media and was separated by an increasing acetonitrile gradient over 47 mins at a flow rate of 250 nL/min. The mass spectrometer was operated in positive ion mode with a capillary temperature of 320° C., and with a potential of 2300V applied to the frit. All readings were acquired with the mass spectrometer operating in automatic data dependent switching mode. A high resolution (70,000) MS scan was performed using the Q Exactive to select the most intense ions prior to MS/MS analysis using Higher-energy collisional dissociation (HCD). To identify peptides and proteins the MS/MS spectra were searched against the rat UniProt database. The database searches were performed with carbamidomethylation (C) as a fixed modification and acetylation (protein N terminus) and oxidation (M) as variable modifications. Filtering by a false discovery rate (FDR) was applied for peptides and proteins (0.01). For the generation of label-free quantitative (LFQ) ion intensities for protein profiles, signals of corresponding peptides in different LCMS/MS runs were matched by MaxQuant.
The Perseus statistical software contained in the MaxQuant package was used to analyze ion intensities (LFQ Intensity). Protein identities were filtered to eliminate the identifications from the reverse database, only identified by site and common contaminants.

hippocampal proteins [2] = assay: Hippocampal LC-MS/MS proteomics, chronic cocaine with single psychedelic administration; assay type: in vivo, Male Wister rats
Protocol: Animals were then randomly allocated to one of five groups and received a single i.p. injection of one of vehicle, 5 mg/kg 5-Meo-DMT, 0.14 mg/kg LSD, 1 mg/kg psilocybin, or 1 mg/kg DOI. On day 15, animals were euthanised and the hippocampus blunt dissected, snap frozen in liquid nitrogen and stored at −80° C. until further processing.
Protein from hippocampal tissue was processed for liquid chromatography tandem Mass Spectrometry (LC-MS/MS). Samples were run on a Thermo Scientific Q Exactive Mass Spectrometer connected to a Dionex Ultimate 3000 (RSLCnano) chromatography system in the UCD Conway Institute Core Mass Spectrometry Facility. Peptide and protein identification of MS/MS spectra were searched against the rat UniProt database using carbamidomethylation (C) as a fixed modification and acetylation (protein N terminus) and oxidation (M) as variable modifications with a false discovery rate filtering of 0.01. MaxQuant was using to generate label-free quantitative (LFQ) ion intensities and the Perseus statistical software contained in the MaxQuant package was used to analyse LFQ ion intensity. Statistical significance (p<0.05, FC±20%) of mean LFQ intensity between treatment groups was determined by two sample t-test. […] Networks were visualised using the stringApp (version 1.6.0) plugin for the Cytoscape software platform (version 3.8.2).

COc1ccc2[nH]cc(CCN(C)C)c2c1 [5-MeO-DMT, 5-methoxy-N,N-dimethyltryptamine]
of the 118 5-MeO-DMT differentially expressed proteins, shared with the combination (hippocampal proteins [1]; 10 mg/kg 5-MeO-DMT): 45 proteins | pathways significantly overrepresented (PANTHER) (hippocampal proteins [1]; 10 mg/kg 5-MeO-DMT): 16 pathways | top overrepresented pathways (hippocampal proteins [1]; 10 mg/kg 5-MeO-DMT): altered protein translation and synthesis | of the 120 5-MeO-DMT differentially expressed proteins, shared with the combination (hippocampal proteins [1]; 20 mg/kg 5-MeO-DMT): 57 proteins | pathways significantly overrepresented (PANTHER) (hippocampal proteins [1]; 20 mg/kg 5-MeO-DMT): 24 pathways | top overrepresented pathways (hippocampal proteins [1]; 20 mg/kg 5-MeO-DMT): regulation of synapse organisation, structure and activity as well as modulating chemical transmission | differentially expressed proteins vs saline+vehicle (hippocampal proteins [1]; 24 h, 10 mg/kg 5-MeO-DMT): 118 proteins | differentially expressed proteins shared between the two concentrations (hippocampal proteins [1]; 24 h, 10 mg/kg and 20 mg/kg 5-MeO-DMT alone): 32 proteins | differentially expressed proteins vs saline+vehicle (hippocampal proteins [1]; 24 h, 20 mg/kg 5-MeO-DMT): 120 proteins | differentially expressed proteins vs saline+vehicle (hippocampal proteins [1]; 24 h, cocaine+10 mg/kg 5-MeO-DMT, 10 mg/kg): 541 proteins and 544 proteins | differentially expressed proteins vs saline+vehicle (hippocampal proteins [1]; 24 h, cocaine+20 mg/kg 5-MeO-DMT): 221 proteins | of the 340 cocaine differentially expressed proteins, remaining in the combination (hippocampal proteins [1]; cocaine+10 mg/kg 5-MeO-DMT): 245 proteins | pathways significantly overrepresented (PANTHER) (hippocampal proteins [1]; cocaine+10 mg/kg 5-MeO-DMT): 309 pathways | top overrepresented pathways (hippocampal proteins [1]; cocaine+10 mg/kg 5-MeO-DMT): NAD and NADH metabolism, positive regulation of lamellipodium assembly and modulation of synaptic signaling | of the 340 cocaine differentially expressed proteins, remaining in the combination (hippocampal proteins [1]; cocaine+20 mg/kg 5-MeO-DMT): 85 proteins | pathways significantly overrepresented (PANTHER) (hippocampal proteins [1]; cocaine+20 mg/kg 5-MeO-DMT): 67 pathways | top overrepresented pathways (hippocampal proteins [1]; cocaine+20 mg/kg 5-MeO-DMT): positive regulation of telomerase activity, negative regulation of apoptosis and regulation of synapse organization, structure and activity | differentially expressed proteins shared between the combination groups (hippocampal proteins [1]; cocaine+10 and cocaine+20 mg/kg 5-MeO-DMT): 153 proteins | differential expression of proteins in the control hippocampus (hippocampal proteins [2]; single i.p. dose (5-MeO-DMT 5 mg/kg, LSD 0.14 mg/kg, psilocybin 1 mg/kg, DOI 1 mg/kg) vs saline-saline, p<0.05, FC ±20%): 64 proteins | differential expression of proteins in the chronic cocaine hippocampus (hippocampal proteins [2]; single i.p. dose after 14 days cocaine 20 mg/kg (5-MeO-DMT 5, LSD 0.14, psilocybin 1, DOI 1 mg/kg) vs cocaine-saline): 74 proteins | reversal of chronic cocaine mediated proteomic changes in the hippocampus (hippocampal proteins [2]; single treatment (5-MeO-DMT 5, LSD 0.14, psilocybin 1, DOI 1 mg/kg i.p.)): 77%

COC(=O)[C@H]1[C@@H](OC(=O)c2ccccc2)C[C@@H]2CC[C@H]1N2C.Cl [cocaine, cocaine hydrochloride, reference compound]
differentially expressed proteins vs saline+vehicle (hippocampal proteins [1]; 24 h, cocaine+vehicle, p<0.05, fold change ≥±20%): 340 proteins | pathways significantly overrepresented (PANTHER) (hippocampal proteins [1]; cocaine group): 157 pathways | top overrepresented pathways (hippocampal proteins [1]; cocaine-experienced animals): regulation of metabolic processes, protein translation and synaptic signalling | significantly regulated proteins in the hippocampus between saline and cocaine (hippocampal proteins [2]; cocaine 20 mg/kg i.p. daily for 14 days): 85 proteins
